Measured values: patent US20190350907A1, “METHODS AND PHARMACEUTICAL COMPOSITIONS FOR REDUCING CD95- MEDIATED CELL MOTILITY” (INSERM (INSTITUT NATIONAL DE LA SANTÉ ET DE LA RECHERCHE …, priority 2017, published 2019)
pIC50: −log10 of the molar value. Values joined by “and” are separate entries in the source; they are usually repeats but may differ in a detail not shown here. Equal values may be shown once. Where no end group is shown, it is not given here.

What was measured:
[1] = molecular target: T1, CD95/PLCγ1 interaction (Homo sapiens, UniProt P19174); assay: Renilla luciferase protein-fragment complementation assay (PCA), CD95-CID/PLCγ1-SH3; format: cell-based; conditions: PCA in HEK cells
T1 construct: The PLCγ1-SH3 domain (aa 790-851) (C); expressed in transfected cells; host or cells: HEK293T
T1 sequence (P19174 790-851): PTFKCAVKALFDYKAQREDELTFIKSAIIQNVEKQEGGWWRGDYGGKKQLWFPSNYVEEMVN
Method: FIG. 1. […] A. Schematic representation of the protein-fragment complementation assay used with CD95-CID or -DD fused to F2 and PLCγ1-SH3 or FADD-DD fused to F1 to identify inhibitors from the Prestwick library. The Renilla luciferase enzyme was divided into amino-terminal and carboxy-terminal fragments (yellow domains) and fused to the indicated domains. B. Compounds from the Prestwick library were tested against CD95/PLCγ1 or CD95/FADD PCA. […] Inhibition of CD95/FADD interaction is also assessed.
Light emission indicates refolding of the luciferase and reconstitution of enzyme activity through protein/protein interactions. […] Data represent means±SD of three independent experiments. […] Then, the indicated peptides fused with or without the cell-penetrating domain TAT were incubated at the indicated concentrations for 4 hrs and luminescence was assessed. Data represent means±SD of three independent experiments. […].
HEK293T cells were electroporated with 5 μg of DNA using BTM-830 electroporation generator (BTX Instrument Division, Harvard Apparatus) with 10 μg of DNA. Transfected cells were cultured for 24 hrs prior to protein complementation assay analyses as previously described (17). Briefly, transfected cells (10^6) were washed, resuspended in 100 μl PBS and deposited in OptiPlate-96 (PerkinElmer, Waltham, Mass., USA). Coelenterazine-h (5 μM, Sigma) was injected to each well and renilla luciferase activity was monitored for the first 10 seconds using Infinite200Pro (Tecan, Männedorf, Switzerland).
A peptide consisting of the cell-penetrating domain of TAT fused to CID (TAT-CID) binds the SH3 domain of PLCγ1 and thereby, prevents PLCγ1/CD95 interaction and the subsequent induction of the Ca^2+ response (16). […] Briefly, the Renilla luciferase enzyme was divided into two fragments (F1 and F2 fragments). […] Interaction of CD95 with PLCγ1 or FADD allows the reconstitution of RLuc and subsequent light emission (FIG. 1A). The chemical Prestwick library was screened against these PCAs (FIG. 1B). […] These molecules are designated CID inhibitors or CIDINH.

[2] = molecular target: T2, CD95/FADD interaction (Homo sapiens, UniProt P25445+Q13158); assay: Renilla luciferase protein-fragment complementation assay (PCA), CD95-DD/FADD-DD; format: cell-based; conditions: result in words; selectivity control
T2 construct: DD-CD95 (aa 210-303) fused to F2; the death domain of FADD (aa 80-210) (D) fused to F1; expressed in transfected cells; host or cells: HEK293T
T2 sequence (P25445 226-319): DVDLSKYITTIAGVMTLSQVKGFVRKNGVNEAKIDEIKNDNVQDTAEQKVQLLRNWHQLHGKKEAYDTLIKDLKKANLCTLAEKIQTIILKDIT
T2 sequence (Q13158 80-208): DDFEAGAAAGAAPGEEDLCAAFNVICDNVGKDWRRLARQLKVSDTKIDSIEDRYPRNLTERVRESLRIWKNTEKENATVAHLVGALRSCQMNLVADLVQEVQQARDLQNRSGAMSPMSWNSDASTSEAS
Excerpt: FIG. 1. Identification of chemical leads from the Prestwick library inhibiting the CD95/PLCγ1 interaction. A. Schematic representation of the protein-fragment complementation assay used with CD95-CID or -DD fused to F2 and PLCγ1-SH3 or FADD-DD fused to F1 to identify inhibitors from the Prestwick library. The Renilla luciferase enzyme was divided into amino-terminal and carboxy-terminal fragments (yellow domains) and fused to the indicated domains. B. Compounds from the Prestwick library were tested against CD95/PLCγ1 or CD95/FADD PCA. This library allowed us to select 34 hits based on their ability to inhibit CD95/PLCγ1 interaction (≥70% of signal inhibition) without altering CD95/FADD binding (ratio (CD95/PLCγ1 inhibition/CD95/FADD inhibition) ≥2). […] Inhibition of CD95/FADD interaction is also assessed.
A. CID-CD95 (aa 175-210) or DD-CD95 (aa 210-303) fused to F2 were co-transfected into HEK cells with the indicated domains of PLCγ1 (Ca^2+ response) or FADD (apoptosis) fused to F1. […] The inhibition of light emission for the indicated PPIs was assessed in cells incubated for the indicated times in the presence of TAT-CID (25 μM). […] Then, the indicated peptides fused with or without the cell-penetrating domain TAT were incubated at the indicated concentrations for 4 hrs and luminescence was assessed. […]

[3] = tested on: CD95-mediated Ca2+ signaling pathway in Tfh cells; assay: CD95-mediated Ca2+ response in Tfh cells; format: cell-based, human; conditions: Example 2; signal described for Th17 and circulating Tfh cells
[4] = tested on: Tfh-dependent B cell activation; assay: Tfh-dependent B-cell maturation co-culture (memory B cells with SEB-stimulated Tfh cells, s-CD95L); format: cell-based; conditions: preincubation of Tfh cells
[5] = tested on: lupus-prone mice (MRL Lpr/+); conditions: repeated injections; cited from earlier work

Substance: TAT-CID: peptide consisting of the CID (CD95 amino acids 175 to 210) conjugated to the cell-penetrating domain of TAT (KRKEVQKTCRKHRKENQGSHESPTLNPETVAINLSD; not fully specified (N-terminus); also: conjugated to TAT cell-penetrating domain, site not given here)
- pIC50 ([1]; peptides incubated for 4 hours, read-out: IC50, disruption of CD95/PLCγ1 interaction by peptides): 4.97 and 4.94
- time course of inhibition of CD95/PLCγ1 ([1]; TAT-CID 25 μM): increased in a time dependent manner
- effect on CD95/FADD interaction [2]: failed to alter
- effect on sCD95L-induced Ca2+ response [3]: abrogated
- effect on Tfh-dependent B cell activation [4]: blocks
- effect on clinical symptoms [5]: alleviate clinical symptoms
- effect on endothelial transmigration of Th17 cells in vivo [5]: block
